The source of these data is patent publication US8133687B2, “Labor biomarkers, methods comprising same, and methods targeting same” (The Trustees of the University of Pennsylvania, priority 2005, dated 2012).

Read-outs that look alike come from different tables or passages of the source. Where no end group is shown, it is not given here.

The experiment has as its system rat aorta-derived A7R5 vascular smooth muscle cells. It counts as cell-based. Particulars: for effect on bradykinin response (cell area): added together with 5 nM bradykinin; for effect on cell area when administered without bradykinin: peptide alone; for effect on PGF2α-induced decrease in cell area: with PGF2α (0.56 nM PG in FIG. 10); for effect on oxytocin-induced decrease in cell area: with oxytocin (10 nM OT in FIG. 10). How it is done: PA gels of controlled stiffness were coated with a nearly constant collagen level (5×10^2 ng/cm^2) as assessed by fluorescent collagen intensities. […] To assess the ability of peptides found in cervicovaginal fluid to activate smooth muscle cells, rat aorta-derived […] vascular smooth muscle cells ([…]; ATCC, Manassas, Va.) were plated onto polyacrylamide gel surfaces (34 kPa) with collagen type 1 (BD Biosciences, San Diego) and covalently pre-attached to the gel surface by sulpho-SANPAH (Pierce, Rockland, Ill.), providing a quantitative and reproducible uterotonics activity assay. Cells were permitted to adhere to the surface for 30 minutes, then were incubated at 37° C. for 4 hours with bradykinin (0-1 μM, Sigma-Aldrich, St. […] Data was fit to a hyperbolic expression using a least squared method, with the half-saturation constant (IC50) representing the intermediate set-point for the system.

The mark [1] stands for this setting: A7R5 cells, listed as potentiation peptide (PP).
The mark [2] stands for this setting: agonist alone, A7R5 cells, 4 hours at 37° C., read-out: IC50 of dose-dependent decrease in cell area.

In the case of “AAHLPAEFTPAVHASLDKF [2.022 kDa peptide, amino acids 110-128 of α-chain hemoglobin]”, for the setting “A7R5 cells”, the “effect on bradykinin response (cell area)” value (shortened to “effect … (cell area)”) is on record as “augmented the bradykinin response”, the “effect on cell area when administered without bradykinin” value was “Neither the 2.022 kDa peptide nor the control peptide had an effect on cell area”, the “effect on PGF2α-induced decrease in cell area” value is listed as “enhanced by sub-μM amounts” and the “effect on oxytocin-induced decrease in cell area” value is given as “enhanced by sub-μM amounts”. In addition, under setting [1], the “effect … (cell area)” value is “augmented the 5 nM BK response”, the “effect on PGF2α-induced decrease in cell area” value was “augmented the 0.56 nM PG response” and the “effect on oxytocin-induced decrease in cell area” value is “augmented the 10 nM OT response”. Moreover, the “effect on decrease in cell area elicited by maximal doses of bradykinin” value (bradykinin 1 μM, A7R5 cells) was “not affected”. The EC50 (with half-saturation dose of bradykinin (5 nM), A7R5 cells, read-out: half-saturation effect of the peptide on the bradykinin response) is 9350 nM.

As usually defined, the IC50 is the point on the concentration scale where inhibition reaches its midpoint. `CC[C@H](C)[C@@H]1NC(=O)[C@H](Cc2ccc(O)cc2)NC(=O)[C@@H](N)CSSC[C@@H](C(=O)N2CCC[C@H]2C(=O)N[C@@H](CC(C)C)C(=O)NCC(N)=O)NC(=O)[C@H](CC(N)=O)NC(=O)[C@H](CCC(N)=O)NC1=O` [Oxytocin, oxytocin, reference compound] displayed an IC50 (4 h) of 8 nM.

In the case of `CCCCC[C@H](O)/C=C/[C@@H]1[C@@H](C/C=C\CCCC(=O)O)[C@@H](O)C[C@H]1O` [PGF2α, reference compound], the IC50 reads like this: (agonist alone, A7R5 cells, 4 hours at 37° C., listed as PGF2-α, read-out: IC50 of dose-dependent decrease in cell area) 0.56 nM; under setting [2], 1 nM.

On to “KAHEFYLAAHPTDALFASP (KAHEFYLAAHPTDALFASP-NH2) [control peptide, same amino acids as the 2.022 kDa peptide, residues ordered randomly, reference compound]”, for which, where the note is “A7R5 cells”, the “effect … (cell area)” value is given as “did not affect the bradykinin response” and the “effect on cell area when administered without bradykinin” value is “Neither the 2.022 kDa peptide nor the control peptide had an effect on cell area”.

For “RPPGFSPFR [Bradykinin, bradykinin, reference compound]”, under setting [2], the IC50 was found to be 5 nM.
